In paper PMC8480901 (PLoS ONE, 2021):
Values joined by “and” are separate entries in the source; they are usually repeats but may differ in a detail not shown here. Equal entries are not always repeated.

Test system: J774.2 mouse macrophages
Assay: LPS-induced cytokine and chemokine levels in J774.2 mouse macrophage cell supernatant (ELISA)
Type: cell-based
Details: for CXCL1 % reduction / CXCL1 [pg/mL] Mean / CXCL2 % reduction / CXCL2 [pg/mL] Mean / MMP9 % reduction / MMP9 [pg/mL] Mean: J774.2 cells; for CXCL1 % reduction / CXCL1 [pg/mL] Mean / CXCL2 % reduction / CXCL2 [pg/mL] Mean / MMP9 % reduction / MMP9 [pg/mL] Mean / CCl2, % reduction / CCl2, Mean / GM-CSF % reduction / GM-CSF Mean / IL-1β % reduction / IL-1β Mean / IL-6 % reduction / IL-6 Mean / TNF-α % reduction / TNF-α Mean / CCl2 / CXCL1 / GM-CSF / IL-1β / IL-6 / TNF-α: LPS; for CCl2, % reduction / CCl2, Mean / GM-CSF % reduction / GM-CSF Mean / IL-1β % reduction / IL-1β Mean / IL-6 % reduction / IL-6 Mean / TNF-α % reduction / TNF-α Mean / CCl2 / CXCL1 / GM-CSF / IL-1β / IL-6 / TNF-α: J774.2 supernatant; for CCl2 / CXCL1 / GM-CSF / IL-1β / IL-6 / TNF-α: individual replicate

## CC[C@H]1OC(=O)[C@H](C)[C@@H](O[C@H]2C[C@@](C)(OC)[C@@H](O)[C@H](C)O2)[C@H](C)[C@@H](O[C@@H]2O[C@H](C)C[C@H](N(C)C)[C@H]2O)[C@](C)(O)C[C@@H](C)CN(C)[C@H](C)[C@@H](O)[C@]1(C)O [Azithromycin]
Compound 0.03 µM
  CXCL1 % reduction: -14%
  CXCL1 [pg/mL] Mean: 29 pg/mL
  CXCL2 % reduction: 36%
  CXCL2 [pg/mL] Mean: 20828 pg/mL
  MMP9 % reduction: -31%
  MMP9 [pg/mL] Mean: 1243 pg/mL
Compound 0.1 µM
  CXCL1 % reduction: -29%
  CXCL1 [pg/mL] Mean: 33 pg/mL
  CXCL2 % reduction: 38%
  CXCL2 [pg/mL] Mean: 20316 pg/mL
  MMP9 % reduction: -12%
  MMP9 [pg/mL] Mean: 1072 pg/mL
Compound 0.3 µM
  CXCL1 % reduction: -11%
  CXCL1 [pg/mL] Mean: 28 pg/mL
  CXCL2 % reduction: 29%
  CXCL2 [pg/mL] Mean: 23099 pg/mL
  MMP9 % reduction: -7%
  MMP9 [pg/mL] Mean: 1027 pg/mL
Compound 1 µM
  CXCL1 % reduction: -18%
  CXCL1 [pg/mL] Mean: 30 pg/mL
  CXCL2 % reduction: 13%
  CXCL2 [pg/mL] Mean: 28283 pg/mL
  MMP9 % reduction: -11%
Compound 3 µM
  CXCL1 % reduction: -30%
  CXCL1 [pg/mL] Mean: 33 pg/mL
  CXCL2 % reduction: 51%
  CXCL2 [pg/mL] Mean: 15868 pg/mL
  MMP9 % reduction: -14%
  MMP9 [pg/mL] Mean: 1088 pg/mL
Compound 10 µM
  CXCL1 % reduction: -51%
  CXCL1 [pg/mL] Mean: 39 pg/mL
  CXCL2 % reduction: 45%
  CXCL2 [pg/mL] Mean: 18014 pg/mL
  MMP9 % reduction: 11%
  MMP9 [pg/mL] Mean: 860 pg/mL
Compound 30 µM
  CXCL1 % reduction: -135%
  CXCL1 [pg/mL] Mean: 60 pg/mL
  CXCL2 % reduction: 26%
  CXCL2 [pg/mL] Mean: 23980 pg/mL
  MMP9 % reduction: 47%
  MMP9 [pg/mL] Mean: 539 pg/mL
Compound 100 µM
  CXCL1 % reduction: -128%
  CXCL1 [pg/mL] Mean: 58 pg/mL
  CXCL2 % reduction: 35%
  CXCL2 [pg/mL] Mean: 21270 pg/mL
  MMP9 % reduction: 70%
  MMP9 [pg/mL] Mean: 332 pg/mL
J774.2 mouse macrophages, concentrations tested (0.03 to 10 μM shown)
  levels of the measured LPS-induced cytokines, chemokines, or MMP-9 in supernatants: little to no reduction
0.03 µM
  CCl2, % reduction: 18%
  CCl2, Mean: 29824 pg/mL
  GM-CSF % reduction: 64%
  GM-CSF Mean: 507 pg/mL
  IL-1β % reduction: -40%
  IL-1β Mean: 266 pg/mL
  IL-6 % reduction: 9%
  IL-6 Mean: 70233 pg/mL
  TNF-α % reduction: -11%
  TNF-α Mean: 1517 pg/mL
  CCl2: 28757.8 pg/mL and 30890.3 pg/mL
  CXCL1: 31.2 pg/mL and 27.2 pg/mL
  GM-CSF: 560.6 pg/mL and 452.6 pg/mL
  IL-1β: 258.52 pg/mL and 274.336 pg/mL
  IL-6: 75760 pg/mL and 64706 pg/mL
  TNF-α: 1559.1 pg/mL and 1475.0 pg/mL
0.1 µM
  CCl2, % reduction: 25%
  CCl2, Mean: 27461 pg/mL
  GM-CSF % reduction: 56%
  GM-CSF Mean: 616 pg/mL
  IL-1β % reduction: -16%
  IL-1β Mean: 222 pg/mL
  IL-6 % reduction: -5%
  IL-6 Mean: 81359 pg/mL
  TNF-α % reduction: -22%
  TNF-α Mean: 1665 pg/mL
  CCl2: 26336.9 pg/mL and 28584.6 pg/mL
  CXCL1: 32.4 pg/mL and 33.7 pg/mL
  GM-CSF: 657.0 pg/mL and 575.0 pg/mL
  IL-1β: 219.952 pg/mL and 223.825 pg/mL
  IL-6: 80523 pg/mL and 82194 pg/mL
  TNF-α: 1716.4 pg/mL and 1614.2 pg/mL
0.3 µM
  CCl2, % reduction: 20%
  CCl2, Mean: 29163 pg/mL
  GM-CSF % reduction: 72%
  GM-CSF Mean: 397 pg/mL
  IL-1β % reduction: 9%
  IL-1β Mean: 173 pg/mL
  IL-6 % reduction: 8%
  IL-6 Mean: 71113 pg/mL
  TNF-α % reduction: -8%
  TNF-α Mean: 1475 pg/mL
  CCl2: 28466.3 pg/mL and 29859.2 pg/mL
  CXCL1: 27.1 pg/mL and 29.7 pg/mL
  GM-CSF: 346.8 pg/mL and 446.6 pg/mL
  IL-1β: 173.433 pg/mL and 172.638 pg/mL
  IL-6: 72113 pg/mL and 70113 pg/mL
  TNF-α: 1462.3 pg/mL and 1488.2 pg/mL
